Data set [1] can be described thus: Infrared-triggered release of ibuprofen from P(BMA-MMA) disc in physiological buffer. The format is physicochemical. The following applies: physiological buffer at 30° C.; for speed of release of ibuprofen from the disc: P(BMA-MMA) disc, 290 ppm Lumogen IR 788, 5 wt % ibuprofen. On the procedure: An object consisting of a pressed circular disc with a diameter of 2.5 cm and thickness of 2 mm was placed in a holder in a vessel completely containing 90 mL physiological buffer at 30° C. […] Addition of ibuprofen led to a lowering of the Tg to about 35° C. The disc was irradiated perpendicularly to the surface with the same laser diode module as in Example 1a, the laser power being 750 mW and the distance between fiber exit and disc 50 mm. The water layer between sample and disc was approximately 20 mm. A glass lid was placed on the vessel to prevent water evaporation. The vessel was completely filled with water, thus avoiding reflection and refraction effects at an additional air/water interface. The near-infrared irradiation only encountered an air to glass and a glass to water transition. Irradiation was applied in an alternating manner, periods of irradiation of 4 hours being alternated by periods of 20 hours without irradiation.

Data set [2] can be described thus: Ibuprofen blood plasma concentration after infrared triggering of subcutaneous strand in rat. The following applies: sc; for concentration at 1 day: first time; for concentration at 2 day: second time (next day). It counts as in vivo. On the procedure:
An object consisting of a compounded strand with a diameter of 2.0 mm and a length of 2.0 cm. […] Addition of ibuprofen led to a lowering of the Tg to about −1° C.
The strand was placed subcutaneously in a rat. After 1 day, the strand was irradiated perpendicularly to the length axis with the same laser diode module as in Example 1a, for 15 minutes, the laser power set at 750 mW and the distance between fiber exit and the skin of the rat being 20 mm. The next day this procedure was repeated again.
Blood samples were taken before, during and after triggering on both days. As a consequence of irradiation, the concentration of ibuprofen in the blood plasma increased the first time from below 5 ng/ml (no detection peak of LC-MS/MS was found) to 25 ng/ml and the second time from below 5 ng/ml (no peak was found) to 19 ng/ml.

The mark [3] stands for this setting: subcutaneous strand with 40 wt % ibuprofen, as a consequence of 15 minutes irradiation at 750 mW.

Structures are written as SMILES. Some results are limits rather than exact numbers.

For `CC(C)Cc1ccc(C(C)C(=O)O)cc1` (stereo not shown) [ibuprofen], the “release of ibuprofen after stopping irradiation” value in data set [1] (after stopping irradiation, same disc) is reported as “fell virtually immediately to the base value”. Further, the “speed of release of ibuprofen from the disc” value in data set [1] (during irradiation (785 nm laser, 750 mW, 4 hours periods)) is listed as “around 3.9×10^−6 g/h”; in data set [1] (without irradiation (base value)), “less than 1×10^−6 g/h”. Moreover, the concentration at 1 day in data set [2] (subcutaneous poly(L,DL-Lactide) strand with 40 wt % ibuprofen, before irradiation, LC-MS/MS) was less than 5 ng/mL; in data set [2] (setting [3]) it was 25 ng/mL. Further, the concentration at 2 day in data set [2] (setting [3]) was 19 ng/mL; in data set [2] (subcutaneous strand with 40 wt % ibuprofen, before irradiation, LC-MS/MS) it was less than 5 ng/mL.

For the origin of these results see patent publication US20100003326A1, “DRUG DELIVERY DEVICE COMPRISING A PHARMACEUTICALLY OR BIOLOGICALLY ACTIVE COMPONENT AND AN INFRARED ABSORBING COMPOUND” (DOLPHYS TECHNOLOGIES B.V., priority 2006, published 2010).
